# In patent publication US20240245677A1, “SELECTED COMPOUNDS FOR TARGETED DEGRADATION OF BRD9” (C4 THERAPEUTICS, INC., priority 2021, published 2024):
# “And” between values parts separate entries of the source, which are not always exact repeats. Equal values may be shown once. Read-outs that look alike come from different tables or passages of the source.
# Columns and labels:
# bromodomain of BRD9 = biological target: T1, bromodomain of BRD9 (Homo sapiens, UniProt Q9H8M2); test: AlphaLISA competition assay, binding to BRD9
# T1 construct: made in house; host or cells: E. coli
# T1 sequence (Q9H8M2 136-240 limits assumed): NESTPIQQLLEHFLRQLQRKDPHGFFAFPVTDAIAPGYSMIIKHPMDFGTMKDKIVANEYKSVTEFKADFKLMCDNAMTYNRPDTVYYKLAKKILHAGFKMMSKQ
# Protocol: An AlphaLISA® (Perkin Elmer Inc., Dumfries, VA, USA) displacement assay was used to determine the binding affinity of Compound 1 to purified bromodomain of BRD9 protein.
# Human histidine-tagged (His-tag) bromodomain of BRD9 was expressed in E. coli and purified, with a concentration of 1.1 mg/mL. The bromodomain of BRD9 was labeled with an AlphaLISA® donor bead (Catalog No. AS101R, Perkin Elmer Inc., Dumfries, VA, USA) attached via a His-tag on the protein. A potent BRD9 ligand was chemically modified to attach a biotin tag. The biotin tag was subsequently used to attach a streptavidin-labeled AlphaLISA® acceptor bead (Catalog No. AL125M, Perkin Elmer Inc., Dumfries, VA, USA).
# Determination of the binding constant (Kd) of Compound 1 to the bromodomain of BRD9 was carried out using an AlphaLISA® competition assay, where binding of Compound 1 to BRD9 was measured via loss of signal upon displacement of biotinylated BRD9 ligand tagged with the AlphaLISA® acceptor bead. […]
# Response (normalized signal), R, for each well containing the test compounds was calculated using the averaged signal from negative and positive control wells: […]
# Compound 1 competed with fluorescence probe for binding to bromodomain of BRD9. […]
# [1] = test system: cryopreserved human hepatocytes; test: Human Hepatocyte Stability Assay; assay type: in vitro ADME
# Protocol: (§1) The metabolic stability of Compound 1 was evaluated using cryopreserved hepatocytes from mice, rats, dogs, cynomolgus monkeys, and humans.
# (§2) 50 μL of 1 mM intermediate solutions for each test compound was prepared by adding 5 μL of 10 mM stock solution to 45 μL of a 1:1 mixture of water and acetonitrile. A 2 μM working stocks for each test compound were prepared in incubation media, InvitroGRO™ KHB (Bio IVT, Westbury, NY, USA), by adding 2 μL of 1 mM intermediate stock to 998 μL of incubation media.
# (§3) To thaw the hepatocytes, InvitroGRO™ HT thawing medium (BioIVT, Westbury, NY, USA) was prewarmed to 37° C., and 48 mL of warmed thawing medium was transferred to a sterile 50 mL conical tube. The hepatocyte vial was removed from the liquid nitrogen Dewar, and gently thawed in a water bath at 37° C. for 1-2 minutes, then the contents of the vial were emptied into a conical tube with prewarmed InvitroGRO HT medium. 1 mL of prewarmed InvitroGRO HT medium was added to each emptied hepatocyte vial to resuspend any remaining cells, and the contents were pipetted into the hepatocyte suspension. The tube containing the hepatocyte suspension was centrifuged at 50*g for 5 minutes. The supernatant was removed carefully, and the remaining pellet was resuspended by adding 1 mL of incubation media, InvitroGRO KHB, and gently shaking until there were no clumps.
# (§4) Cell viability was determined using the trypan blue method. 25 μL of hepatocyte cell suspension was added to a trypan blue (TB) solution (containing 775 μL InvitroGRO KHB and 200 μL of Trypan Blue). Cell count was taken using a hemacytometer.
# (§5) For mouse hepatocytes, 200 μL of hepatocytes (0.8×10^6 cells/mL) were added to the wells of a 48 well plate (Catalog No. 92048, TPP Techno Plastic Products AG, Trasadingen, Switzerland) and pre-incubated for 30 minutes at 37° C. For rat, dog, monkey, […], 200 μL of hepatocytes (2×10^6 cells/mL) were added to the wells of a 48 well plate (Catalog No. 92048, TPP Techno Plastic Products AG, Trasadingen, Switzerland) and pre-incubated for 30 minutes at 37° C.
# (§6) For all species of hepatocytes, once the pre-incubation period was complete, 200 μL of 2 μM working stock of test compound was added to the wells of the plate, and the plate was vortexed on a Vibramax™ 100 (P/N 544-21200-00, Heidolph Instruments GmbH & Co. KG, Schwabach, Germany) at 500 rpm in a 37° C. CO2 incubator (Model No. 51026280, ThermoFisher Scientific, Waltham, MA, USA). At each time point of 0, 15, 30, 60, 90, and 120 minutes, 50 μL of incubation mixture was precipitated with 200 μL of acetonitrile containing internal standard.
# (§7) At the end of the experiment, the samples were centrifuged at 4000 rpm for 10 minutes. […]
# [2] = Human Hepatocyte Stability Assay; assay type: in vitro ADME; conditions: cryopreserved hepatocytes
# Protocol: as §1, §2, §3, §4, §5, §6, §7
smiles,measurement,setting,value
"COc1cc(-c2cn(C)c(=O)c(C)c2C)cc(OC)c1CN1CC[C@H](N2CCN(c3ccc(N[C@H]4CCC(=O)NC4=O)cc3F)CC2)C(F)(F)C1 [Compound 1, (S)-3-((4-(4-((S)-1-(2,6-dimethoxy-4-(1,4,5-trimethyl-6-oxo-1,6-dihydropyridin-3-yl)benzyl)-3,3-difluoropiperidin-4-yl)piperazin-1-yl)-3-fluorophenyl)amino)-piperidine-2,6-dione]",Kd,"bromodomain of BRD9; each occasion in duplicate, read-out: Kd, individual test occasion",157 nM and 131 nM and 129 nM
same,Kd,"bromodomain of BRD9; n=3, read-out: Kd (geometric mean), binding affinity to BRD9",139 nM
same,CLhb scaled well stirred,[1],8.4 mL/min/kg body wt.
same,half-life at 1 µM,[2],> 120 min
same,hepatocyte CLint at 1 µM,[2]; read-out: CL int cells,4.67 µL/min/1e6 cells
same,CLint scaled at 1 µM,[2]; read-out: CL int in vivo,14.4 mL/min/kg
